# Measurements: patent publication US20090156609A1, “TREATMENT OF POST-TRAUMATIC STRESS DISORDER WITH TETRAHYDROINDOLONE ARYLPIPERZAINE COMPOUNDS” (priority 2007, published 2009)
# Like-named read-outs stand apart in the source and are kept apart here.
# Columns and labels:
# Male C57 mice = test: PCP-induced disruption of prepulse inhibition (PPI) of the startle response; type: in vivo; details: for minimum effective dose, Prepulse Inhibition (PPI): reversal of PCP-induced disruption, route not given; for minimal effective dose: Mus musculus, 20 minutes prior to PCP 5 mg/kg IP, read-out: Effective Dose, Prepulse Inhibition Testing
# From the text: The phencyclidine (PCP)-induced disruption of pre-pulse inhibition (PPI) has been used to predict efficacy in cognitive impairment and other disorders. In this test, a weaker auditory prestimulus (prepulse) inhibits the reaction of an test organism to a subsequent strong startle stimulus (pulse). Normal PPI functioning in mammals is critical in filtering out irrelevant sensory information, an inhibitory process that is affected in patients with PTSD. A reduction of the cognitive/attention impairment produced in the PPI model can be used as an efficacy measure for compound candidate selection.
# For testing of PPI, male C57 mice can be assigned to five dose groups of eight animals per group, and vehicle or test compound can then be administered orally (PO) or subcutaneously (SC) 20 minutes prior to intraperitoneal (IP) administration of vehicle or PCP (5 mg/kg). Ten minutes following PCP administration, the mice are placed into Hamilton-Kinder startle chambers and evaluation of pre-pulse inhibition procedure is performed. Following a five-minute acclimatization period with background white noise (65 decibels), mice were exposed to five different trial types. Trials were presented […] in a quasi-random order, with randomized 5 to 25 second inter-trial intervals. Trials were: stimulus only trial (120 decibel white noise, 50 ms stimulus); two different prepulse+pulse trials in which a 20 ms 5 decibel, or 10 decibel stimuli above a 65 decibel background preceded the 120 decibel pulse by 120 ms; a 10 decibel prepulse without a 120 decibel pulse; and a no stimulus trial, in which only the background noise was presented.
# Compounds which are observed to reduce and/or reverse PCP-induced impairment can be selected as candidates for further evaluation. Such reduction is also indicative of memory enhancement, which is also a positive indicator for further development.
# Male C57 mice were assigned to five dose groups of eight animals per group, and vehicle or a test compound was administered orally or subcutaneously 20 minutes prior to intraperitoneal administration of vehicle or PCP (5 mg/kg). Ten minutes following PCP administration, the mice were placed into Kinder Scientific startle chambers (Kinder Scientific, Poway, Calif.) and pre-pulse inhibition was evaluated. Following a five-minute acclimatization period with background white noise (65 dB), mice were exposed to five different trial types. Trials were presented in a quasi-random order, with randomized 5 to 25 second inter-trial intervals. The five different trials (presented 10 times each were): stimulus only trial (120 dB white noise, 50 ms stimulus); two different prepulse+pulse trials in which a 20 ms 5 dB or 10 dB stimulus above a 65 dB background preceded the 120 dB pulse by 120 ms; a 10 dB prepulse without a 120 dB pulse; and a no stimulus trial, in which only the background noise was presented.
# mice = test: Spontaneous Activity model (locomotor activity); type: in vivo; details: models unwanted side effects
# From the text: Ambulatory and non-ambulatory activity can be used to test spontaneous and drug-induced motor activity. The test can be used to profile the potential for a drug to induce hyperactivity or sedation.
# In this model, Kinder Scientific photobeam activity monitors are used to record the ambulatory and non-ambulatory motor activity. The monitors track the photobeam breaks made by the animal that are used to calculate the number of ambulatory and fine (non-ambulatory) motor movements. A drug-induced increase in activity can indicate the potential for an adverse event such as hyperactivity. A drug-induced decrease in response can indicate the potential for an adverse event such as sedation. Doses at which no significant change in activity are recorded, and more preferably at which no change in activity are recorded, can be selected for further evaluation.
# (§1) The present compounds were tested in the conditioned avoidance response (CAR) model and in the Spontaneous Activity model described above.
# C-57 mice = test: Conditioned avoidance response (CAR) model; type: in vivo; details: models unwanted side effects
# From the text: The Condition Avoidance Responding (CAR, active avoidance) model is a measure of cognitive and attention impairment. It evaluates the disruption of avoidance (increased latency) without disruption of escape (extrapyramidal motor function).
# The training of C-57 mice consists of 20 trials with variable inter-trial intervals (trained to 80% Avoidance Criteria). After a one-minute acclimation period, the house light and an acoustic 90 decibel tone (conditioned stimuli) are presented. A response (crossing to dark compartment) within 5 seconds ends the trial and trial is recorded as avoidance response (CAR). […] To avoid shock, animals learn to move from the lighted side of the − chamber to the dark side when the cue is presented (avoidance) or moved when the shock is administered (escape). Compounds that disrupt cognition in the CAR model can be excluded from candidate consideration.
# as §1
# patients = details: placebo 37 percent, cited from earlier work
Structure (SMILES),"minimum effective dose, Prepulse Inhibition (PPI) (Male C57 mice)","minimum effective dose, Locomotor Activity (mice)","minimum effective dose, Conditioned Avoidance Response (C-57 mice)","minimal effective dose (Male C57 mice; sc, subcutaneous)",minimal effective dose (Male C57 mice; oral),patients who responded positively (patients; 20 mg paroxetine),patients who responded positively (patients; 40 mg paroxetine)
"O=C1CCCc2c1ccn2CCN1CCN(c2cccc(C(F)(F)F)c2)CC1 [Compound E, 1-{2-[4-(3-Trifluoromethylphenyl)piperazin-1-yl]ethyl}-1,5,6,7-tetrahydroindol-4-one]",3 mg/kg,>10 mg/kg,>10 mg/kg,–,–,–,–
"O=C1CCCc2c1ccn2CCCCN1CCN(c2ccc(Br)cc2)CC1 [Compound C, 1-{4-[4-(4-Bromophenyl)piperazin-1-yl]butyl}-1,5,6,7-tetrahydroindol-4-one]",3 mg/kg,>10 mg/kg,>10 mg/kg,3 mg/kg,–,–,–
"O=C1CCCc2c1ccn2CCCCN1CCN(c2cccc(C(F)(F)F)c2)CC1 [Compound D, 1-{4-[4-(3-Trifluoromethylphenyl)piperazin-1-yl]butyl}-1,5,6,7-tetrahydroindol-4-one]",0.3 mg/kg,3 mg/kg,3 mg/kg,0.3 mg/kg,1 mg/kg,–,–
"O=C1CCCc2c1ccn2CCCCN1CCN(c2ccc(Cl)c(Cl)c2)CC1 [Compound H, 1-{4-[4-(3,4-dichlorophenyl)piperazin-1-yl]butyl}-1,5,6,7-tetrahydroindol-4-one]",–,–,–,1 mg/kg,6 mg/kg,–,–
"Fc1ccc([C@@H]2CCNC[C@H]2COc2ccc3c(c2)OCO3)cc1 [paroxetine, Paroxetine]",–,–,–,–,–,62%,54%
"O=C1CCCc2c1ccn2CCCN1CCN(c2cccc(Cl)c2)CC1 [Compound F, 1-{3-[4-(3-Chlorophenyl)piperazin-1-yl]propyl}-1,5,6,7-tetrahydroindol-4-one]",3 mg/kg,>3 mg/kg,>10 mg/kg,–,–,–,–
"O=C1CCCc2c1ccn2CCCN1CCN(c2cccc(C(F)(F)F)c2)CC1 [Compound G, 1-{3-[4-(3-Trifluoromethylphenyl)piperazin-1-yl]propyl}-1,5,6,7-tetrahydroindol-4-one]",3 mg/kg,>10 mg/kg,>10 mg/kg,–,–,–,–
"O=C1CCCc2c1ccn2CCCCN1CCN(c2ccc(Cl)cc2Cl)CC1 [Compound J, 1-{4-[4-(2,4-Dichlorophenyl)piperazin-1-yl]butyl}-1,5,6,7-tetrahydroindol-4-one]",–,–,–,10 mg/kg,–,–,–
"O=C1CCCc2c1ccn2CCCN1CCN(c2ccc(Cl)c(Cl)c2)CC1 [Compound K, 1-{3-[4-(3,4-Dichlorophenyl)piperazin-1-yl]propyl}-1,5,6,7-tetrahydroindol-4-one]",–,–,–,10 mg/kg,–,–,–
"O=C1CCCc2c1ccn2CCCCN1CCN(c2ccc(F)cc2)CC1 [Compound B, 1-{4-[4-(4-Fluorophenyl)piperazin-1-yl]butyl}-1,5,6,7-tetrahydroindol-4-one]",1 mg/kg,3 mg/kg,>3 mg/kg,1 mg/kg,–,–,–
"O=C1CCCc2c1ccn2CCCCN1CCN(c2ccc(F)c(Cl)c2)CC1 [Compound I, 1-{4-[4-(3-Chloro-4-fluorophenyl)piperazin-1-yl]butyl}-1,5,6,7-tetrahydroindol-4-one]",–,–,–,1 mg/kg,–,–,–
